Measured values taken from patent US20110117120A1, “Plasmodium falciparum HLA class I restricted T-cell epitopes” (priority 2009, published 2011).
No end group written: not given here.

Tests used:
Type in all cases: cell-based, human
[1] = system: CD4+ and CD8+ T cells of PBMC; experiment: Intracellular cytokine staining (ICS) of CD4+ and CD8+ T cells; settings: HLA-matched volunteers; FIG. 1 upper panel
Procedure: ICS was performed on PBMCs with costimulatory antibodies anti-CD28 and […] (obtained from BD Bioscience™, San Jose, Calif.). The peptides were used at the same concentrations as in ELISpot assays. Stimulants were added t cells and incubated at 37° C. with 5% CO2 for 2 hr. Golgi Plug™ (Brefeldin A) (BD Bioscience™, San Jose, Calif.) was added at a final concentration of 0.6 μL/mL and incubated at 37° C. with 5% CO2 overnight. Cells were stained with anti-CD3 (Alexa Fluor 700™), anti-CD4 (PerCP™), and anti-CD8 Pacific Blue™ (obtained from BD Bioscience™, San Jose, Calif.). and 1 μg/mL of live/dead fixable blue dye, incubated and washed. Cells were permeabilized with Cytofix/Cytoperm™ solution (obtained from BD Bioscience™, San Jose, Calif.), incubated and washed. Cells were stained intracellularly with anti-CD3 ([…]), anti-CD4 (PerCP™), and anti-CD8 Pacific Blue™, anti-IFN-γ FITC, anti-TNF PE, and anti-IL2 APC, incubated and washed. Cells were resuspended and the entire available sample was acquired by flowcytometry. The gating strategy included progressively measuring total cells; viable cells only; lymphocytes; T cells; CD4^+ CD8^+ populations; and a specific cell type expressing a specific cytokine. Histograms were used to determine the total production of IFN-γ, IL2, and TNF for the CD4^+ and CD8^+ populations. Boolean gates were used to determine cells producing combinations of cytokines.
In these studies, T cells containing IFN-γ, IL2, or TNFα, were gated into different subsets: IFN-γ+, IL2+, TNFα−; IFN-γ+, IL2-, TNFα+; IFN-γ+, IL2+, TNFα+; or IFN-γ+, IL2−, TNFα− T cells, and stimulated with the predicted epitopes and their parent peptide pool. The frequency of CD8^+ T cells producing total IFN-γ was far greater than CD4^+ T cell responses (FIG. 1, upper panel), which were extremely low.

PBMC = experiment: ELISpot IFN-γ assay with PBMC of Ad5-PfCA immunized volunteers (Example 1); settings: threshold 40 SFC/million
Procedure: In order to assess the pools for their ability to induce T-cell responses, specifically CD 8^+ responses, PBMC, 1 month post immunization were used, from the five volunteers in Table 1, in ELISpot assays. In these studies, IFN-γ activity was measured in response to exposure to the peptide pools. The assays were conducted essentially as described by Wang, et al., Proc. Natl. Acad. Sci. (U.S.A.), 98: 10817-22.
The stimulation of circulating antigen-specific T cell lymphocytes was evaluated by measurement of γ-IFN induction by ELISPOT. The ELISpot assay was conducted using thawed cryopreserved PBMC at 200 K cells per well. Pre-challenge cells were taken at day 21 and day 22 post AdPfCA vaccination. Cells were suspended in […] complete medium and were stimulated with AMA1 peptides suspended in […] of complete medium. Peptide concentrations used in assays was 10 μg/ml of each peptide tested. Cultures were incubated for 36 h at 37° C., 5% CO2. Depending on availability of cells, each PBMC sample was assayed in duplicate, triplicate, or quadruplicate and the number of IFN-γ-secreting cells recognized as spot-forming cells (SFC) was enumerated using an automated ELISpot reader. In duplicate assays, all values were used in analysis. For triplicate or quadruplicate assays, outliers were rejected if any single value contributed more than 50% of the standard deviation of the triplicate (or quadruplicate) and if its value was three-fold greater or less than the average of the remaining two (or three) values. The mean spot forming cells (SFCs) obtained in negative control wells were subtracted from the value of each test well from the same sample. Negative counts generated by this background subtraction were converted to zero. The mean spot number of the test sample was then calculated and expressed as SFC/million PBMCs. Values obtained with pre-vaccinated samples were subtracted from the post-vaccination values.

[2] = system: CD4+ or CD8+ T cell depleted PBMC; experiment: ELISpot IFN-γ assay after CD4+ or CD8+ T cell depletion of PBMC (Example 1); design: % change of ELISpot activity, CD8 dep vs control: concentration or dose not given beside the values; ELISpot IFN-γ activity, Control dep / ELISpot IFN-γ activity, CD4 dep / ELISpot IFN-γ activity, CD8 dep: unit not given here; settings: for ELISpot IFN-γ activity, CD4 dep: CD4+ T cells depleted; for ELISpot IFN-γ activity, CD8 dep: CD8+ T cells depleted; for ELISpot IFN-γ activity, Control dep: mock depletion
Procedure: PBMC population depletion was conducted using anti-human CD4+ and anti-CD8^+ coated Dynabeads™ M-450 (Dynal, Great Neck, N.Y.) following the manufacturer's instructions. Mock depletion was done with Dynabeads coated with Sheep anti-mouse IgG. Flow cytometry confirmed that T-cell subset depletions were >99% in all experiments. The data is presented as the % effect (decrease) in activity after T cell subset depletion.
Finally, we wanted to confirm that indeed the responses to AMA14e were mediated by CD8^+ T cells. We compared activity to AMA14e in ELISpot depletion assays and ICS CD4^+ or CD8^+ T cell IFN-γ assays with Ap1-12 and recombinant AMA1 protein with v001 and v005 (FIG. 3). CD8^+ T cell depletion reduced ELISpot activity to AMA14e by about 85% in v001 and 95% in v005.

NEFPAIDLF (listed as Plasmodium falciparum) [Epitope 2]
CD8^+ T cell IFN-γ response in ICS [1]: equal or more CD8^+ IFN-γ than the parent peptide pool

QNSDVYRPINEHREH [Ap1-9]
IFN-γ ELISpot activity of individual 15-mer peptide (PBMC; Volunteer 001): 48 SFC/10^6

HPKEYEYPL (listed as Plasmodium falciparum) [Epitope 9]
CD8^+ T cell IFN-γ response in ICS [1]: equal or more CD8^+ IFN-γ than the parent peptide pool

ETQKCEIFNVKPTCL [Ap8-11]
IFN-γ ELISpot activity of individual 15-mer peptide (PBMC; Volunteer 001): 48 SFC/10^6
IFN-γ ELISpot activity of individual 15-mer peptide (PBMC; Volunteer 005): 218 SFC/10^6
IFN-γ ELISpot activity of individual 15-mer peptide (PBMC; Volunteer 008): 48 SFC/10^6

EDIPHVNEFPAIDLF [Ap7-3]
IFN-γ ELISpot activity of individual 15-mer peptide (PBMC; Volunteer 001): 139 SFC/10^6

NEVVVKEEY [Epitope 1, NEVVVKEEY]
CD8^+ T cell IFN-γ response in ICS [1]: equal or more CD8^+ IFN-γ than the parent peptide pool

MTLDEMRHFYKDNKY [Ap4-10]
IFN-γ ELISpot activity of individual 15-mer peptide (PBMC; Volunteer 002): 82 SFC/10^6
IFN-γ ELISpot activity of individual 15-mer peptide (PBMC; Volunteer 005): 118 SFC/10^6

HVNEFPAIDLFECNK [Ap7-4]
IFN-γ ELISpot activity of individual 15-mer peptide (PBMC; Volunteer 001): 96 SFC/10^6

INEHREHPKEYEYPL [Ap1-11]
% change of ELISpot activity, CD4 dep vs control ([2]; V002): −18%
% change of ELISpot activity, CD8 dep vs control ([2]; V002): −94%
ELISpot IFN-γ activity, CD4 dep ([2]; V002): 152
ELISpot IFN-γ activity, CD8 dep ([2]; V002): 11
ELISpot IFN-γ activity, Control dep ([2]; V002): 185
% change of ELISpot activity, CD4 dep vs control ([2]; V005): −37%
% change of ELISpot activity, CD8 dep vs control ([2]; V005): −100%
ELISpot IFN-γ activity, CD4 dep ([2]; V005): 145
ELISpot IFN-γ activity, CD8 dep ([2]; V005): 0
ELISpot IFN-γ activity, Control dep ([2]; V005): 233
IFN-γ ELISpot activity of individual 15-mer peptide (PBMC; Volunteer 002): 180 SFC/10^6
IFN-γ ELISpot activity of individual 15-mer peptide (PBMC; Volunteer 005): 322 SFC/10^6

TSNNEVVVKEEYKDE [Ap10-13]
% change of ELISpot activity, CD4 dep vs control ([2]; V001): +148%
% change of ELISpot activity, CD8 dep vs control ([2]; V001): −88%
ELISpot IFN-γ activity, CD4 dep ([2]; V001): 252
ELISpot IFN-γ activity, CD8 dep ([2]; V001): 13
ELISpot IFN-γ activity, Control dep ([2]; V001): 103
% change of ELISpot activity, CD4 dep vs control ([2]; V012): +14%
% change of ELISpot activity, CD8 dep vs control ([2]; V012): −100%
ELISpot IFN-γ activity, CD4 dep ([2]; V012): 90
ELISpot IFN-γ activity, CD8 dep ([2]; V012): 0
ELISpot IFN-γ activity, Control dep ([2]; V012): 79
IFN-γ ELISpot activity of individual 15-mer peptide (PBMC; Volunteer 001): 250 SFC/10^6
IFN-γ ELISpot activity of individual 15-mer peptide (PBMC; Volunteer 012): 233 SFC/10^6

KEYEYPLHQEHTYQQ [Ap1-13]
% change of ELISpot activity, CD4 dep vs control ([2]; V001): +133%
% change of ELISpot activity, CD8 dep vs control ([2]; V001): −76%
ELISpot IFN-γ activity, CD4 dep ([2]; V001): 168
ELISpot IFN-γ activity, CD8 dep ([2]; V001): 17
ELISpot IFN-γ activity, Control dep ([2]; V001): 72
IFN-γ ELISpot activity of individual 15-mer peptide (PBMC; Volunteer 001): 42 SFC/10^6
